Experimental data taken from PubChem BioAssay (NCI).
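Assay format: 96-well plates, 48-hour exposure. The concentration for 50% growth inhibition is given as GI50. At the TGI there is no net growth.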

Experiments:
Assay in all cases: inhibition of tumour cell growth, NCI panel, 48 h
SK-MEL-28 melanoma = test system: SK-MEL-28 melanoma
OVCAR-3 ovarian = test system: OVCAR-3 ovarian
COLO 205 colon = test system: COLO 205 colon
HS 578T breast = test system: HS 578T breast
SR leukemia = test system: SR leukemia
IGROV1 ovarian = test system: IGROV1 ovarian
SN12C renal = test system: SN12C renal
LXFL 529 NSCLC = test system: LXFL 529 NSCLC
SNB-78 CNS = test system: SNB-78 CNS

Row | Structure (SMILES) | GI50 (SK-MEL-28 melanoma) [µM] | TGI (SK-MEL-28 melanoma) [µM] | GI50 (OVCAR-3 ovarian) [µM] | TGI (OVCAR-3 ovarian) [µM] | GI50 (COLO 205 colon) [µM] | TGI (COLO 205 colon) [µM] | GI50 (HS 578T breast) [µM] | TGI (HS 578T breast) [µM] | GI50 (SR leukemia) [µM] | TGI (SR leukemia) [µM] | GI50 (IGROV1 ovarian) [µM] | TGI (IGROV1 ovarian) [µM] | GI50 (SN12C renal) [µM] | TGI (SN12C renal) [µM] | TGI (LXFL 529 NSCLC) [µM] | TGI (SNB-78 CNS) [µM]
1 | O=C(/C=C/c1cc(CN2CCOCC2)c(O)c2ncccc12)c1cc(CN2CCOCC2)c(O)c2ncccc12 | 0.594 | > 100 | 0.0535 | > 100 | 0.0842 | > 100 | 0.0713 | > 100 | 0.0463 | > 100 | 0.0682 | > 66.6 | 0.0673 | > 100 |  | 
2 | CC(C)CNC(=O)O |  | > 100 |  | > 100 |  | > 100 |  | > 100 |  | > 100 |  | > 100 |  | > 100 |  | 
3 | COc1ccc(Nc2c3ccccc3nc3occ(Cl)c23)cc1 | 0.0265 | 21.1 | < 0.01 | < 0.0166 | < 0.01 | 4.89 | 0.0237 | 61.3 | < 0.01 | 8.36 | 0.0634 | > 77.2 | 0.0858 | 19 |  | 
4 | C=C1C(=O)O[C@H]2[C@H]1CC/C(COC(=O)c1ccc(Cl)nc1)=C\CC[C@@]1(C)O[C@@H]21 | 1.94 | 4.9 | 1.03 | 2.32 | 1.74 | 3.96 | 4.56 | 36.2 | 0.658 | 38.8 | 1.43 | 6.2 | 2.15 | 5.42 |  | 
5 | CCC(C)(C)c1ccc(OCCCCCCN2CCNCC2)cc1 | 1.74 | 3.77 | 2.73 | 7.86 | 1.77 | 3.51 | 1.97 | 5.17 | 1.25 | 3.71 | 2.63 | 7.29 | 3.48 | 13.5 |  | 
6 | C=C1C[C@]23CCC4C(C)(C)C(=O)CC[C@]4(C)C2C[C@H]1C(O)C3=O (stereo not given in full) |  | > 75 |  | > 75 |  | > 75 |  |  |  | > 75 |  | > 75 |  | > 75 | > 75 | > 75
7 | Nc1nc(SN=Nc2ccc(S(N)(=O)=O)cc2)c2[nH]cnc2n1 | 2.29 | > 52.5 | 0.511 | 7.93 | 1.42 | 3.6 | 1.81 | > 50.2 | 0.186 | > 100 | 1.65 | > 100 | 0.698 | > 100 |  | 
